Experimental data taken from the supplement of paper PMC10307832.

Columns and labels:
Experiment in all cases: relative viability (nuclei count vs DMSO), 5 days (fraction); higher = more cells survive
JZL-184 + Tozasertib = compound: C1CN(CCC1C(C2=CC3=C(C=C2)OCO3)(C4=CC5=C(C=C4)OCO5)O)C(=O)OC6=CC=C(C=C6)[N+](=O)[O-] [JZL-184] + Cc1cc(Nc2cc(N3CCN(C)CC3)nc(Sc3ccc(NC(=O)C4CC4)cc3)n2)n[nH]1 [Tozasertib] (partner 0.1 µM)
Procedure, shortened: (§1)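 Cells from lung cancer lines were seeded into 1536-well plates and, one day later, dosed by pin tool. Treatments were either a single drug or a fixed dose of an anchor drug with five library-drug doses (not always all listed) in √10 steps. After 5 days, nuclei were stained in a one-step fixation (final 0.05% Triton X-100, 1% formaldehyde, 1 ug/ml Hoechst) and counted on 4× images, and relative viability is the treated-to-vehicle nuclei ratio, as the median of duplicate plates.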

JZL-184 + Pemetrexed = compound: C1CN(CCC1C(C2=CC3=C(C=C2)OCO3)(C4=CC5=C(C=C4)OCO5)O)C(=O)OC6=CC=C(C=C6)[N+](=O)[O-] [JZL-184] + Nc1nc2[nH]cc(CCc3ccc(C(=O)N[C@@H](CCC(=O)O)C(=O)O)cc3)c2c(=O)[nH]1 [Pemetrexed] (partner 0.2 µM)
Procedure, shortened: as §1

JZL-184 + Bortezomib = compound: C1CN(CCC1C(C2=CC3=C(C=C2)OCO3)(C4=CC5=C(C=C4)OCO5)O)C(=O)OC6=CC=C(C=C6)[N+](=O)[O-] [JZL-184] + CC(C)C[C@H](NC(=O)[C@H](Cc1ccccc1)NC(=O)c1cnccn1)B(O)O [Bortezomib] (partner 0.002 µM)
Procedure, shortened: as §1

JZL-184 + Linsitinib = compound: C1CN(CCC1C(C2=CC3=C(C=C2)OCO3)(C4=CC5=C(C=C4)OCO5)O)C(=O)OC6=CC=C(C=C6)[N+](=O)[O-] [JZL-184] + C[C@]1(O)C[C@@H](c2nc(-c3ccc4ccc(-c5ccccc5)nc4c3)c3c(N)nccn32)C1 [Linsitinib] (partner 1 µM)
Procedure, shortened: as §1

JZL-184 + Phenformin = compound: C1CN(CCC1C(C2=CC3=C(C=C2)OCO3)(C4=CC5=C(C=C4)OCO5)O)C(=O)OC6=CC=C(C=C6)[N+](=O)[O-] [JZL-184] + N=C(N)NC(=N)NCCc1ccccc1 [Phenformin] (partner 250 µM)
Procedure, shortened: as §1

| Cell Line | relative viability (JZL-184 + Tozasertib; first compound 0.04 µM) | relative viability (JZL-184 + Tozasertib; first compound 0.4 µM) | relative viability (JZL-184 + Tozasertib; first compound 1.265 µM) | relative viability (JZL-184 + Tozasertib; first compound 4 µM) | relative viability (JZL-184 + Pemetrexed; first compound 0.04 µM) | relative viability (JZL-184 + Pemetrexed; first compound 0.4 µM) | relative viability (JZL-184 + Pemetrexed; first compound 1.265 µM) | relative viability (JZL-184 + Pemetrexed; first compound 4 µM) | relative viability (JZL-184 + Bortezomib; first compound 0.04 µM) | relative viability (JZL-184 + Bortezomib; first compound 0.4 µM) | relative viability (JZL-184 + Bortezomib; first compound 1.265 µM) | relative viability (JZL-184 + Bortezomib; first compound 4 µM) | relative viability (JZL-184 + Linsitinib; first compound 0.04 µM) | relative viability (JZL-184 + Linsitinib; first compound 0.4 µM) | relative viability (JZL-184 + Linsitinib; first compound 1.265 µM) | relative viability (JZL-184 + Linsitinib; first compound 4 µM) | relative viability (JZL-184 + Phenformin; first compound 0.04 µM) | relative viability (JZL-184 + Phenformin; first compound 0.4 µM) | relative viability (JZL-184 + Phenformin; first compound 1.265 µM) | relative viability (JZL-184 + Phenformin; first compound 4 µM) |
| --- | --- | --- | --- | --- | --- | --- | --- | --- | --- | --- | --- | --- | --- | --- | --- | --- | --- | --- | --- | --- |
| NCI-H1355 | 0.589 | 0.515 | 0.612 | 0.433 | 1.06 | 0.945 | 1.05 | 1.04 | 1.28 | 1.18 | 1.18 | 1.18 | 0.606 | 0.856 | 0.842 | 0.8 | 0.421 | 0.427 | 0.505 | 0.429 |
| NCI-H2023 | 0.356 | 0.318 | 0.345 | 0.296 | 0.281 | 0.167 | 0.258 | 0.227 | 1.03 | 0.947 | 1.01 | 0.865 | 0.664 | 0.756 | 0.757 | 0.522 | 0.477 | 0.342 | 0.469 | 0.35 |
| NCI-H2087 | 0.23 | 0.229 | 0.268 | 0.244 | 0.667 | 0.663 | 0.631 | 0.636 | 0.901 | 0.811 | 0.845 | 0.771 | 1.14 | 0.765 | 0.999 | 0.961 | 0.538 | 0.449 | 0.515 | 0.486 |
| NCI-H838 | 0.285 | 0.299 | 0.294 | 0.238 | 0.254 | 0.236 | 0.241 | 0.256 | 1.13 | 0.828 | 0.819 | 0.636 | 1.23 | 1.05 | 0.98 | 0.98 | 0.594 | 0.601 | 0.643 | 0.608 |
| LC-2-ad | 0.451 | 0.429 | 0.511 | 0.385 | 0.293 | 0.278 | 0.279 | 0.265 | 1.16 | 0.868 | 0.99 | 0.942 | 0.857 | 0.698 | 0.839 | 0.829 | 0.639 | 0.549 | 0.67 | 0.538 |
| HCC-78 | 0.402 | 0.413 | 0.388 | 0.318 | 0.895 |  | 0.875 | 0.919 | 0.384 | 0.521 | 0.667 | 0.516 | 0.355 | 0.513 | 0.535 | 0.474 | 0.63 | 0.611 | 0.754 | 0.752 |
| LOU-NH91 | 0.806 | 0.727 | 0.798 | 0.629 | 0.389 | 0.334 | 0.381 | 0.394 | 0.51 | 0.419 | 0.511 | 0.471 | 1 | 0.924 | 1.02 | 0.968 | 0.795 | 0.626 | 0.774 | 0.708 |
| NCI-H1734 | 0.265 | 0.231 | 0.255 | 0.247 | 0.462 | 0.426 | 0.419 | 0.42 | 1.03 | 0.842 | 1.02 | 0.884 | 0.852 | 0.796 | 0.898 | 0.86 | 0.469 | 0.36 | 0.38 | 0.349 |
| NCI-H520 | 0.424 | 0.407 | 0.581 | 0.413 | 0.782 | 0.483 | 0.748 | 0.684 | 0.648 | 0.479 | 0.582 | 0.531 | 1.15 | 0.929 | 0.926 | 0.897 | 0.533 | 0.48 | 0.739 | 0.485 |
| UMC-11 | 0.177 | 0.21 | 0.206 | 0.196 | 0.916 | 0.755 | 0.876 | 0.79 | 0.79 | 0.723 | 0.571 | 0.673 | 1.43 | 0.935 | 1.09 | 0.944 | 0.289 | 0.319 | 0.3 | 0.331 |
| NCI-H596 | 0.878 | 0.932 | 0.861 | 0.931 | 0.543 | 0.411 | 0.452 | 0.48 | 1.21 | 0.948 | 1.17 | 1.08 | 1.21 | 0.978 | 1.05 | 1.05 | 0.895 | 0.663 | 0.895 | 0.769 |
| NCI-H1755 | 0.545 | 0.575 | 0.601 | 0.453 | 0.432 | 0.367 | 0.475 | 0.484 | 1.13 | 0.895 | 0.933 | 0.859 | 0.976 | 1.01 | 1.01 | 0.943 | 0.636 | 0.621 | 0.614 | 0.601 |
| SK-LU-1 | 0.372 | 0.328 | 0.329 | 0.338 | 1.04 | 0.887 | 1 | 0.881 | 0.929 | 1.06 | 1.29 | 1.16 | 1.29 | 1.02 | 1.11 | 1.11 | 0.528 | 0.504 | 0.677 | 0.564 |
| NCI-H647 | 0.388 | 0.425 | 0.46 | 0.252 | 0.201 | 0.161 | 0.209 | 0.19 | 1.32 | 0.922 | 1.14 | 0.974 | 1.18 | 1.06 | 1.19 | 1.26 | 0.532 | 0.527 | 0.595 | 0.546 |
| SW 1573 | 0.175 | 0.143 | 0.229 | 0.176 | 1.11 | 0.842 | 0.915 | 0.876 | 1.14 | 0.935 | 1.08 | 0.976 | 0.856 | 0.833 | 0.781 | 0.814 | 0.446 | 0.296 | 0.373 | 0.283 |
| HCC-15 | 0.521 | 0.415 | 0.407 | 0.331 | 0.222 | 0.217 | 0.212 | 0.23 | 1.11 | 0.987 | 1.03 | 0.995 | 0.939 | 0.889 | 1 | 0.781 | 0.548 | 0.467 | 0.485 | 0.454 |
| NCI-H2126 | 0.89 | 0.749 | 0.883 | 0.767 | 0.663 | 0.66 | 0.726 | 0.705 | 1.13 | 1.09 | 1.09 | 1.15 | 0.644 | 0.673 | 0.701 | 0.693 | 0.6 | 0.541 | 0.538 | 0.532 |
| NCI-H2085 |  | 0.812 | 0.845 | 0.753 |  | 0.817 | 0.948 | 0.882 | 0.914 | 1.06 | 1.04 | 0.91 | 0.852 | 0.862 | 1.18 | 0.866 | 0.433 | 0.682 | 0.843 | 0.737 |
| BEN | 0.513 | 0.536 | 0.506 | 0.456 | 0.811 | 0.787 | 0.887 | 1.02 | 0.912 | 0.711 | 0.942 | 0.799 | 1.19 | 0.881 | 0.995 | 0.995 | 0.245 | 0.235 | 0.271 | 0.279 |
| NCI-H650 | 0.84 | 0.731 | 0.848 | 0.761 | 0.894 | 0.924 | 1.04 | 1.01 | 0.912 | 0.801 | 1.04 | 0.738 | 0.966 | 0.62 | 0.933 | 0.747 | 0.44 | 0.388 | 0.469 | 0.422 |
| LCLC-103H | 0.488 | 0.521 | 0.521 | 0.529 | 0.495 | 0.481 | 0.453 | 0.477 | 0.992 | 1.08 | 0.985 | 1.02 | 1.06 | 1.16 | 1 | 1.05 | 0.338 | 0.296 | 0.345 | 0.323 |
| PC-14 | 0.647 | 0.623 | 0.631 | 0.485 | 0.126 | 0.128 | 0.15 | 0.114 | 0.808 | 0.972 | 0.781 | 0.77 | 1.05 | 0.965 | 0.95 | 0.942 | 0.756 | 0.473 | 0.72 | 0.504 |
| NCI-H2228 | 0.327 | 0.299 | 0.282 | 0.271 | 0.397 | 0.336 | 0.38 | 0.337 | 1.1 | 1.01 | 0.995 | 0.835 | 0.642 | 0.892 | 0.636 | 0.616 | 0.405 | 0.239 | 0.317 | 0.412 |
| COR-L23 | 0.197 | 0.181 | 0.215 | 0.143 | 0.195 | 0.191 | 0.179 | 0.192 | 1.2 | 0.915 | 0.979 | 0.91 | 1.15 | 0.926 | 0.92 | 0.837 | 0.552 | 0.401 | 0.438 | 0.429 |
| NCI-H1915 | 0.491 | 0.41 | 0.461 | 0.376 | 0.506 | 0.485 | 0.535 | 0.534 | 0.992 | 0.93 | 1.03 | 1.03 | 1.14 | 0.996 | 1.09 | 1.02 | 0.378 | 0.364 | 0.377 | 0.367 |
